Source: patent US10669272B2, “Substituted naphthyridinone compounds useful as T cell activators” (BRISTOL-MYERS SQUIBB COMPANY, priority 2018, dated 2020)

Experiments:
human DGKζ = target: T1, human DGKζ (Homo sapiens, UniProt Q13574); test: DGKζ LIPGLO assay (extruded liposome substrate), in vitro DGK inhibition; assay type: biochemical; details: liposome (LIPGLO) assay; read-out: DGKz LIPGLO IC50
T1 construct: TVMV protease cleavage site (C); Hexa-His (C); made in house; host or cells: Sf9 insect cells (baculovirus, Bac-to-Bac)
T1 sequence (Q13574 with tags, fused parts or gaps isoform Q13574-4): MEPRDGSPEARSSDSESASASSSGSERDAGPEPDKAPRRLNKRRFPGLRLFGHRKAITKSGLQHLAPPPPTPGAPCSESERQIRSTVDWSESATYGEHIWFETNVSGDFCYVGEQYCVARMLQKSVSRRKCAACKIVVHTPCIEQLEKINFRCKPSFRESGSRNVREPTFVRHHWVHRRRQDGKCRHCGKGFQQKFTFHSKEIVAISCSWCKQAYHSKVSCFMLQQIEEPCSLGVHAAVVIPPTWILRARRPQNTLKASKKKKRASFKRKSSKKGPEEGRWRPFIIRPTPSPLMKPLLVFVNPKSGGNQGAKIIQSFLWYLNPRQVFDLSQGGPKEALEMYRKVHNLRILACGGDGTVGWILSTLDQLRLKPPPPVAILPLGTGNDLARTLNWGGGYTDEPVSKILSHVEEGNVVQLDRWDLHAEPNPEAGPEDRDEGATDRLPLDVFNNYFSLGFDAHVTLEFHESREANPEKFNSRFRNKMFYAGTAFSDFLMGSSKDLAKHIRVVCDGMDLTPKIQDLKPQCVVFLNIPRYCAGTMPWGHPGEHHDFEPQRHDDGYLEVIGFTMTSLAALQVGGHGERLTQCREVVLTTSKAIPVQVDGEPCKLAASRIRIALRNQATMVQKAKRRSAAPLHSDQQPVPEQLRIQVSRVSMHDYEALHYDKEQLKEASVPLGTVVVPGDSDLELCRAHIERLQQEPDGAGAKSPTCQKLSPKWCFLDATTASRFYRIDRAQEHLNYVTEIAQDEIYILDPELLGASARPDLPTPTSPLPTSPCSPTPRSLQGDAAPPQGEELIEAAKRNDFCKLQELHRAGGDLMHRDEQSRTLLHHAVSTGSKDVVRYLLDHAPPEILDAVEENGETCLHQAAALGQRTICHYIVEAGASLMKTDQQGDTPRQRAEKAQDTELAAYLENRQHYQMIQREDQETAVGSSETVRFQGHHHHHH

human DGKα = target: T2, human DGKα (Homo sapiens, UniProt P23743); test: DGKα LIPGLO assay (extruded liposome substrate), in vitro DGK inhibition; assay type: biochemical; details: liposome (LIPGLO) assay; read-out: DGKa LIPGLO IC50
T2 construct: TVMV protease cleavage site (C); Hexa-His (C); made in house; host or cells: Sf9 insect cells (baculovirus, Bac-to-Bac)
T2 sequence (P23743 with tags, fused parts or gaps): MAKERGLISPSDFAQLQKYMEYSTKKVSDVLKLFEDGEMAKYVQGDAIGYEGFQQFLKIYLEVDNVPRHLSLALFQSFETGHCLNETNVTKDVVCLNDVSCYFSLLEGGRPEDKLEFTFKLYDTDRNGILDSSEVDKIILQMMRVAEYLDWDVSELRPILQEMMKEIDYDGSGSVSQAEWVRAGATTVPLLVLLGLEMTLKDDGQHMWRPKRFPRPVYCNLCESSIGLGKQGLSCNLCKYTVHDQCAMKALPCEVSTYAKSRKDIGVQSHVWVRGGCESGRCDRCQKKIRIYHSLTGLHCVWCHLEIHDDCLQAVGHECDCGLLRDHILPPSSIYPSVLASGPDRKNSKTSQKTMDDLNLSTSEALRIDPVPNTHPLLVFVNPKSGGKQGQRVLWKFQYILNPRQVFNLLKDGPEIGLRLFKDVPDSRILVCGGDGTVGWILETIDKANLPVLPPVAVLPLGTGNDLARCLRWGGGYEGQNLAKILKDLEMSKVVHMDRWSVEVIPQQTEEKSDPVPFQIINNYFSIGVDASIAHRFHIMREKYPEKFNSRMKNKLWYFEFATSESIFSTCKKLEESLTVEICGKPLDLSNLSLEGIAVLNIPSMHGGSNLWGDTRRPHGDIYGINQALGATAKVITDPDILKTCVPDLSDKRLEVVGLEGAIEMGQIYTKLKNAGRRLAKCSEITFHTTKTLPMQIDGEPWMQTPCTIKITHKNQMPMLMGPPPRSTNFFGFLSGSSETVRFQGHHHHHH

Row | SMILES | IC50 (human DGKζ) [nM] | IC50 (human DGKα) [nM]
1 | CC(c1ccc(OC(F)(F)F)cc1)N1C[C@@H](C)N(c2cc(=O)n(C)c3ccc(C#N)nc23)C[C@@H]1CO (single isomer, unassigned) [Example 1181] | 2500 | 77000
2 | Cn1c(=O)cc(N2CCN(Cc3ccc(F)cc3Cl)C(COC(F)F)C2)c2nc(C#N)ccc21 (single isomer, unassigned) [Example 1184, 8-(4-(2-chloro-4-fluorobenzyl)-3-((difluoromethoxy)methyl)piperazin-1-yl)-5-methyl-6-oxo-5,6-dihydro-1,5-naphthyridine-2-carbonitrile] | 11000 | 110000
3 | Cn1c(=O)cc(N2CCN(C(c3ccc(F)cc3)c3ccc(F)cc3)C(COC(F)F)C2)c2nc(C#N)ccc21 (single isomer, unassigned) [Example 1186] | 30000 | > 250000
4 | Cn1c(=O)cc(N2CCN(C(c3ccc(F)cc3)c3ccc(F)cc3)C(COC(F)F)C2)c2nc(C#N)ccc21 (single isomer, unassigned) [Example 1187] | 2900 | 150000
5 | C[C@@H]1CN(c2cc(=O)n(C)c3ccc(C#N)nc23)[C@@H](C)CN1C(COC(F)F)c1ccc(F)cc1 (single isomer, unassigned) [Example 1188] | 780 | 29
6 | CC(c1cc(OC(F)F)ccc1F)N1C[C@H](C)N(c2cc(=O)n(C)c3ccc(C#N)nc23)C[C@H]1C (single isomer, unassigned) [Example 1228] | 3000 | 5400
7 | CC(c1cc(F)c(F)c(F)c1)N1C[C@H](C)N(c2cc(=O)n(C)c3ccc(C#N)nc23)C[C@H]1C (single isomer, unassigned) [Example 1240] | 150 | 3500
8 | CC(c1cc(F)c(F)c(F)c1)N1C[C@H](C)N(c2cc(=O)n(C)c3ccc(C#N)nc23)C[C@H]1C (single isomer, unassigned) [Example 1241] | 600 | 3800
9 | Cc1nc2c(C(C)N3C[C@H](C)N(c4cc(=O)n(C)c5ccc(C#N)nc45)C[C@H]3C)cccc2o1 (single isomer, unassigned) [Example 1260] | 86 | 54000
10 | Cc1nc2c(C(C)N3C[C@H](C)N(c4cc(=O)n(C)c5ccc(C#N)nc45)C[C@H]3C)cccc2o1 (single isomer, unassigned) [Example 1261] | 1100 | 4200
11 | Cc1nc2ccc(C(C)N3C[C@H](C)N(c4cc(=O)n(C)c5ccc(C#N)nc45)C[C@H]3C)cc2s1 (single isomer, unassigned) [Example 1263] | 150 | 950
12 | Cc1nc2ccc(C(C)N3C[C@H](C)N(c4cc(=O)n(C)c5ccc(C#N)nc45)C[C@H]3C)cc2s1 (single isomer, unassigned) [Example 1264] | 3600 | 10000
13 | CC(c1cccc(OC(F)F)c1)N1C[C@H](C)N(c2cc(=O)n(C)c3ccc(C#N)nc23)C[C@H]1C (single isomer, unassigned) [Example 1271] | 30 | 150
14 | CC(c1cccc(OC(F)F)c1)N1C[C@H](C)N(c2cc(=O)n(C)c3ccc(C#N)nc23)C[C@H]1C (single isomer, unassigned) [Example 1272] | 660 | 5000
15 | C[C@@H]1CN(c2cc(=O)n(C)c3ccc(C#N)nc23)[C@@H](C)CN1C(c1ccc(F)cc1)c1ccc(P(C)(C)=O)cc1 (single isomer, unassigned) [Example 1293] | 6100 | 100000
16 | CC(c1ccc(P(C)(C)=O)cc1)N1C[C@H](C)N(c2c(C#N)c(=O)n(C)c3ccc(C#N)nc23)C[C@H]1C (single isomer, unassigned) [Example 1295] | 47000 | 130000

Row | SMILES | IC50 (human DGKζ) [nM] | IC50 (human DGKα) [nM]
17 | C[C@@H]1CN(c2cc(=O)n(C)c3ccc(C#N)nc23)[C@@H](C)CN1C(c1ccc(F)cc1)C1CCS(=O)(=O)CC1 (single isomer, unassigned) [Example 1301] | 3600 | 91000
18 | CSCC(c1ccc(F)cc1)N1C[C@H](C)N(c2cc(=O)n(C)c3ccc(C#N)nc23)C[C@H]1C (single isomer, unassigned) [Example 1319] | 610 | 99
19 | CC(c1ccc(C#N)c(OCCN(C)C)c1)N1C[C@H](C)N(c2cc(=O)n(C)c3ccc(C#N)nc23)C[C@H]1C (single isomer, unassigned) [Example 1322] | 53000 | 130000
20 | CC(c1ccc(C#N)c(OCCN(C)C)c1)N1C[C@H](C)N(c2cc(=O)n(C)c3ccc(C#N)nc23)C[C@H]1C (single isomer, unassigned) [Example 1323] | 7100 | 130000
21 | CC[C@@H]1CN(c2cc(=O)n(C)c3ccc(C#N)nc23)[C@@H](C)CN1C(C)c1ccc(Cl)cc1F (single isomer, unassigned) [Example 1353] | 510 | 460
22 | CC[C@H]1CN(C(C)c2ccc(C3CC3)cc2F)[C@H](CC)CN1c1cc(=O)n(C)c2ccc(C#N)nc12 (single isomer, unassigned) [Example 1357] | 20 | 120
23 | CC[C@H]1CN(C(c2ccc(F)cc2)c2csc(C(F)(F)F)n2)[C@H](CC)CN1c1cc(=O)n(C)c2ccc(C#N)nc12 (single isomer, unassigned) [Example 1361] | 11 | 11
24 | CC[C@H]1CN(C(c2ccc(F)cc2)c2csc(C(F)(F)F)n2)[C@H](CC)CN1c1cc(=O)n(C)c2ccc(C#N)nc12 (single isomer, unassigned) [Example 1362] | 50 | 160
25 | CC(c1ccc(OC(F)F)cc1)N1C[C@H](C)N(c2c(C#N)c(=O)n(C)c3ccc(C#N)nc23)C[C@H]1C (single isomer, unassigned) [Example 1376] | 17000 | 840
26 | CC[C@H]1CN(C(C)c2cc(F)c(F)c(F)c2)[C@H](C)CN1c1cc(=O)n(C)c2ccc(C#N)nc12 (single isomer, unassigned) [Example 1382] | 60 | 660
27 | CCOC[C@@H]1CN(c2cc(=O)n(C)c3ccc(C#N)nc23)[C@@H](C)CN1C(C)c1ccc(OC(F)(F)F)cc1 (single isomer, unassigned) [Example 1397] | 54 | 1300
28 | CCOC[C@@H]1CN(c2cc(=O)n(C)c3ccc(C#N)nc23)[C@@H](C)CN1C(C)c1ccc(OC(F)(F)F)cc1 (single isomer, unassigned) [Example 1398] | 1600 | 5500
29 | CC[C@H]1CN(C(C)c2ccc(OC(F)(F)F)cc2)[C@H](COC)CN1c1cc(=O)n(C)c2ccc(C#N)nc12 (single isomer, unassigned) [Example 1408] | 83 | 19
30 | CCC(c1ccc(OC(C)(C)C)cc1)N1C[C@H](C)N(c2cc(=O)n(C)c3ccc(C#N)nc23)C[C@H]1C (single isomer, unassigned) [Example 1444] | 480 | 10000
31 | C[C@@H]1CN(C(c2ccc(F)cc2)c2ccc(F)cc2)[C@@H](C)CN1c1c(C#N)c(=O)n(C)c2ccc(Br)nc12 [Example 5, 4-((2R,5S)-4-(bis(4-fluorophenyl)methyl)-2,5-dimethylpiperazin-1-yl)-6-bromo-1-methyl-2-oxo-1,2-dihydro-1,5-naphthyridine-3-carbonitrile] | 42000 | 23000
